Patent US8779157B2, “MGLUR4 allosteric potentiators, compositions, and methods of treating neurological dysfunction” (Vanderbilt University, priority 2009, dated 2014)
pEC50: −log10 of the molar value.

Molecular target: mGluR4 (UniProt Q14833)
Assay: mGluR4 potentiation assay (fluorescence, Ca2+ or thallium/GIRK readout; EC20 agonist)
Format: cell-based, human / rat
Settings: half maximal effective concentration for mGluR4 potentiation; species of receptor not given
Protocol: The disclosed compounds and compositions can be evaluated for their ability to act as a potentiator of metabotropic glutamate receptor activity, in particular mGluR4 activity, by any suitable known methodology known in the art. For example, Chinese Hamster Ovary (CHO) cells transfected with human mGluR4 or HEK cells co-transfected with rat mGluR4 and the G-protein regulated Inwardly Rectifying Potassium channel (GIRK) were plated in clear bottom assay plates for assay in a Hamamatsu FDSS Fluorometric Plate Reader. The cells were loaded with either a Ca2+-sensitive fluorescent dye or the thallium responsive dye and the plates were washed and placed into a suitable kinetic plate reader. For human mGluR4 assays, a fluorescence baseline was established for 3-5 seconds, the disclosed compounds were then added to the cells, and the response in cells was measured. Approximately two and a half minutes later, a concentration of mGluR4 orthosteric agonist (e.g. glutamate or L-AP4) eliciting approximately 20% (EC20) of the maximal agonist response was added to the cells, and the response was measured. Two minutes later, a concentration of mGluR4 agonist (e.g. glutamate or L-AP4) eliciting 80% (EC80) of the maximal agonist response was added to the cells, and the response was measured. For rat mGluR4/GIRK experiments, a baseline was established for approximately five seconds, disclosed compounds were added, and either an EC20 or EC80 concentration of agonist was added approximately two and one half minutes later. Potentiation of the agonist response of mGluR4 by the disclosed compounds was observed as an increase in response to the EC20 concentration of agonist in the presence of compound compared to the response to agonist in the absence of compound. Similarly, antagonism of the agonist response of mGluR4 by the disclosed compounds was observed as a decrease in response to the EC80 concentration of agonist in the presence of compound compared to the response to agonist in the absence of compound.
The above described assay operated in two modes. In the first mode, a range of concentrations of the disclosed compounds are added to cells, followed by a single fixed concentration of agonist. If the compound acts as a potentiatior, an EC50 value for potentiation and a maximum extent of potentiation by the compound at this concentration of agonist is determined by non-linear curve fitting. If the compound acts as a noncompetitive antagonist, an IC50 value is determined by non-linear curve fitting. In the second mode, several fixed concentrations of the disclosed compounds are added to various wells on a plate, followed by a range in concentrations of agonist for each concentration of disclosed compound. The EC50 values for the agonist at each concentration of compound are determined by non-linear curve fitting. A decrease in the EC50 value of the agonist with increasing concentrations of the sample compound (a leftward shift of the agonist concentration-response curve) is an indication of the degree of mGluR4 potentiation at a given concentration of the sample compound. A decrease in the maximal response of the agonist with increasing concentrations of the sample compounds, with or without a rightward shift in agonist potency, is an indication of the degree of noncompetitive antagonism at mGluR4. The second mode also indicates whether the sample compounds also affect the maximum response to mGluR4 to agonists.

Row | SMILES | pEC50
1 | O=C(Nc1ccc(N2C(=O)C3CNCCN3C2=O)c(Cl)c1)c1ccccn1 (stereo not drawn) [Example 1.3.45] | 5.38
2 | CC12CCCCN1C(=O)N(c1ccc(NC(=O)c3ncccc3F)cc1Cl)C2=O (stereo not drawn) [Example 1.3.91, N-(3-chloro-4-(8a-methyl-1,3-dioxohexahydroimidazo[1,5-a]pyridin-2(3H)-yl)phenyl)-3-fluoropicolinamide] | 5.42
3 | O=C(Nc1ccc(N2C(=O)C3COCCN3C2=O)c(Cl)c1)c1nccs1 (stereo not drawn) [Example 1.3.25, N-(3-Chloro-4-(1,3-dioxodihydro-1H-imidazo[5,1-c][1,4]oxazin-2(3H,8H,8aH)-yl)phenyl)thiazole-2-carboxamide] | 5.20
4 | O=C(Nc1ccc(N2C(=O)C3CCCCN3C2=S)c(Cl)c1)c1cnccn1 (stereo not drawn) [Example 1.3.76, N-(3-chloro-4-(1-oxo-3-thioxohexahydroimidazo[1,5-a]pyridin-2(3H)-yl)phenyl)pyrazine-2-carboxamide] | 5.30
5 | CS(=O)(=O)N1CCN2C(=O)N(c3ccc(NC(=O)c4ccccn4)cc3Cl)C(=O)C2C1 (stereo not drawn) [Example 1.3.47, N-(3-chloro-4-(7-(methylsulfonyl)-1,3-dioxotetrahydroimidazo[1,5-a]pyrazin-2(1H,3H,5H)-yl)phenyl)picolinamide] | 5.33
6 | CC12CCCCN1C(=O)N(c1ccc(NC(=O)c3cccc(F)n3)cc1Cl)C2=O (stereo not drawn) [Example 1.3.90, N-(3-chloro-4-(8a-methyl-1,3-dioxohexahydroimidazo[1,5-a]pyridin-2(3H)-yl)phenyl)-6-fluoropicolinamide] | 5.95
7 | C[C@@]1(Cc2ccc(F)cc2)NC(=O)N(c2ccc(NC(=O)c3ccccn3)cc2Cl)C1=O [Example 1.3.61, (S)-N-(3-chloro-4-(4-(4-fluorobenzyl)-4-methyl-2,5-dioxoimidazolidin-1-yl)phenyl)picolinamide] | 6.47
8 | COc1cccc(C(=O)Nc2ccc(N3C(=O)N[C@@](C)(Cc4ccccc4)C3=O)c(Cl)c2)n1 [Example 1.3.68, (S)-N-(4-(4-benzyl-4-methyl-2,5-dioxoimidazolidin-1-yl)-3-chlorophenyl)-6-methoxypicolinamide] | 5.23
9 | CN1C(=O)N(c2ccc(NC(=O)c3ccccn3)cc2Cl)C(=O)C12CCCCC2 [Example 1.3.52, N-(3-chloro-4-(1-methyl-2,4-dioxo-1,3-diazaspiro[4.5]decan-3-yl)phenyl)picolinamide] | 6.75
10 | O=C(Nc1ccc(N2C(=O)C3CCCCN3C2=S)c(Cl)c1)c1ccsc1 (stereo not drawn) [Example 1.3.78, N-(3-chloro-4-(1-oxo-3-thioxohexahydroimidazo[1,5-a]pyridin-2(3H)-yl)phenyl)thiophene-3-carboxamide] | 5.75
11 | CC(C)(C)OC(=O)N1CCN2C(=O)N(c3ccc(NC(=O)c4ccccn4)cc3Cl)C(=O)C2C1 (stereo not drawn) [Example 1.3.44, tert-butyl-2-(2-chloro-4-(picolinamide)phenyl)-1,3-dioxohexahydroimidazo[1,5-a]pyrazine-7(1H)-carboxylate] | 6.12
12 | O=C(Nc1ccc(N2C(=O)C3COCCN3C2=O)c(Cl)c1)c1ccccn1 (stereo not drawn) [Example 1.3.21, N-(3-Chloro-4-(1,3-dioxodihydro-1H-imidazo[5,1-c][1,4]oxazin-2(3H,8H,8aH)-yl)phenyl)picolinamide] | 5.66
13 | O=C(Nc1ccc(N2C(=O)C3COCCN3C2=S)c(Cl)c1)c1cccc(F)n1 (stereo not drawn) [Example 1.3.38, N-(3-Chloro-4-(1-oxo-3-thioxodihydro-1H-imidazo[5,1-c][1,4]oxazin-2(3H, 8H,8aH)-yl)phenyl)-6-fluoropicolinamide] | 6.03
14 | CC12CCCCN1C(=O)N(c1ccc(NC(=O)c3nccs3)cc1Cl)C2=O (stereo not drawn) [Example 1.3.86, N-(3-chloro-4-(8a-methyl-1,3-dioxohexahydroimidazo[1,5-a]pyridin-2(3H)-yl)phenyl)thiazole-2-carboxamide] | 5.79
15 | O=C(Nc1ccc(N2C(=O)C3COCCN3C2=S)c(Cl)c1)c1ncc(F)cc1F (stereo not drawn) [Example 1.3.36, N-(3-Chloro-4-(1-oxo-3-thioxodihydro-1H-imidazo[5,1-c][1,4]oxazin-2(3H, 8H,8aH)-yl)phenyl)-3,5-difluoropicolinamide] | 5.77
16 | O=C(Nc1ccc(N2C(=O)C3CCCCN3C2=O)c(Cl)c1)c1cscn1 (stereo not drawn) [Example 1.3.5, N-(3-Chloro-4-(1,3-dioxotetrahydroimidazo[1,5-a]pyridin-2(1H,3H,5H)-yl)phenyl)thiazole-4-carboxamide] | 5.70
17 | C[C@@]1(Cc2ccccc2)NC(=O)N(c2ccc(NC(=O)c3nccs3)cc2Cl)C1=O [Example 1.3.67, (S)-N-(4-(4-benzyl-4-methyl-2,5-dioxoimidazolidin-1-yl)-3-chlorophenyl)thiazole-2-carboxamide] | 5.21
18 | CC12CCCCN1C(=S)N(c1ccc(NC(=O)c3nccs3)cc1Cl)C2=O (stereo not drawn) [Example 1.3.94, N-(3-chloro-4-(8a-methyl-1-oxo-3-thioxohexahydroimidazo[1,5-a]pyridin-2(3H)-yl)phenyl)thiazole-2-carboxamide] | 6.12
19 | CC1(C)NC(=O)N(c2ccc(NC(=O)c3ccccn3)cc2Cl)C1=O [Example 1.3.18, N-(3-chloro-4-(4,4-dimethyl-2,5-dioxoimidazolidin-1-yl)phenyl)picolinamide] | 5.38
20 | CC(C)[C@@]1(C)NC(=O)N(c2ccc(NC(=O)c3ccccn3)cc2Cl)C1=O [Example 1.3.60, (R)-N-(3-chloro-4-(4-isopropyl-4-methyl-2,5-dioxoimidazolidin-1-yl)phenyl)picolinamide] | 5.44
21 | O=C(Nc1ccc(N2C(=O)NC3(CCC(c4ccccc4)CC3)C2=O)c(Cl)c1)c1ccccn1 (stereo not drawn) [Example 1.3.51, N-(3-chloro-4-(2,4-dioxo-8-phenyl-1,3-diazaspiro[4.5]decan-3-yl)phenyl)picolinamide] | 5.67
22 | O=C(Nc1ccc(N2C(=O)C3COCCN3C2=O)c(Cl)c1)c1cscn1 (stereo not drawn) [Example 1.3.26, N-(3-Chloro-4-(1,3-dioxodihydro-1H-imidazo[5,1-c][1,4]oxazin-2(3H,8H,8aH)-yl)phenyl)thiazole-4-carboxamide] | 5.21
23 | O=C(Nc1ccc(N2C(=O)C3CSCCN3C2=O)c(Cl)c1)c1ccccn1 (stereo not drawn) [Example 1.3.40, N-(3-chloro-4-(1,3-dioxodihydro-1H-imidazo[5,1-c][1,4]thiazin-2(3H,8H,8aH)-yl)phenyl)picolinamide] | 6.39
24 | CC12CCCCN1C(=S)N(c1ccc(NC(=O)c3ncc(F)cc3F)cc1Cl)C2=O (stereo not drawn) [Example 1.3.96, N-(3-chloro-4-(8a-methyl-1-oxo-3-thioxohexahydroimidazo[1,5-a]pyridin-2(3H)-yl)phenyl)-3,5-difluoropicolinamide] | 6.53
25 | O=C(Nc1ccc(N2C(=O)C3CCCCN3C2=O)c(Cl)c1)c1cccc(F)n1 (stereo not drawn) [Example 1.3.4, N-(3-Chloro-4-(1,3-dioxotetrahydroimidazo[1,5-a]pyridin-2(1H,3H,5H)-yl)phenyl)-6-fluoropicolinamide] | 5.78
26 | CC(=O)N1CCN2C(=O)N(c3ccc(NC(=O)c4ccccn4)cc3Cl)C(=O)C2C1 (stereo not drawn) [Example 1.3.72, N-(4-(7-acetyl-1,3-dioxohexahydroimidazo[1,5-a]pyrazin-2(3H)-yl)-3-chlorophenyl)picolinamide] | 5.35
27 | O=C(Nc1ccc(N2C(=O)C3CCCCN3C2=O)c(Cl)c1)c1ncccc1F (stereo not drawn) [Example 1.3.7, N-(3-Chloro-4-(1,3-dioxotetrahydroimidazo[1,5-a]pyridin-2(1H,3H,5H)-yl)phenyl)-3-fluoropicolinamide] | 5.48
28 | CC(C)N1C(=O)N(c2ccc(NC(=O)c3ccccn3)cc2Cl)C(=O)[C@@H]1C(C)(C)C [Example 1.3.58, (S)-N-(4-(4-(tert-butyl)-3-isopropyl-2,5-dioxoimidazolidin-1-yl)-3-chlorophenyl)picolinamide] | 6.70
29 | CC12CCCCN1C(=S)N(c1ccc(NC(=O)c3ncccc3F)cc1Cl)C2=O (stereo not drawn) [Example 1.3.99, N-(3-chloro-4-(8a-methyl-1-oxo-3-thioxohexahydroimidazo[1,5-a]pyridin-2(3H)-yl)phenyl)-3-fluoropicolinamide] | 6.19
30 | CN1C(=O)N(c2ccc(NC(=O)c3ccccn3)cc2Cl)C(=O)[C@]1(C)Cc1ccccc1 [Example 1.3.64, (S)-N-(4-(4-benzyl-3,4-dimethyl-2,5-dioxoimidazolidin-1-yl)-3-chlorophenyl)picolinamide] | 6.71
